The record followed here is patent US20240092784A1, “CONDENSED HETEROCYCLIC COMPOUND” (NISSAN CHEMICAL CORPORATION, priority 2020, published 2024).

The structures appear in SMILES notation. Where a name gives a salt, the structure may show the parent alone.

The target of the first assay is human SPR (Homo sapiens (Human), UniProt P35270). Briefly: Evaluation Example 2: Measurement of human SPR inhibitory activity (seven concentrations, sepiapterin absorbance at 420 nm). Type of assay: biochemical. The note with it: Evaluation Example 2, seven concentrations 0.14 nM to 100 nM, 240 minutes at room temperature, read-out: IC50. In outline: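 His-tagged full-length human SPR (1-261) was expressed in E. coli and the tag removed. Enzyme at 150 ng/mL in 100 mM Tris-HCl pH 7.5/0.01% BSA was mixed with compound (0.14–100 nM, seven points), 120 μM sepiapterin and 160 μM NADPH, both as added-solution concentrations. After 240 min at room temperature, remaining sepiapterin was read at 420 nm to give percent inhibition.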
human SPR, sequence (P35270 whole entry): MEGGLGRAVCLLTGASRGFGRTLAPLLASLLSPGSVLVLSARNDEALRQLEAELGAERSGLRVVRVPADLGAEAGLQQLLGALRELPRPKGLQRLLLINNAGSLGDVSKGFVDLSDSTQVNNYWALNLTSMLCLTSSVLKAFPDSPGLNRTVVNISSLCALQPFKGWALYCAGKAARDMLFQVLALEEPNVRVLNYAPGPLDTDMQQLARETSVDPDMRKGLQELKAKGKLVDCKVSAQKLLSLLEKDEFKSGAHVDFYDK
With `CC(=O)N1CCCC2(CCCN2C(=O)/C=C/c2c(C)nn3c(O)c(C(=O)NC4CC4)c(=O)n(CC(C)C)c23)C1` (stereo not drawn) [Synthesis Example 663, (E)-3-(3-(7-Acetyl-1,7-diazaspiro[4.5]decan-1-yl)-3-oxoprop-1-en-1-yl)-N-cyclopropyl-7-hydroxy-4-isobutyl-2-methyl-5-oxo-4,5-dihydropyrazolo[1,5-a]pyrimidine-6-carboxamide], the IC50 came to 1.41 nM.

In the case of `CC(C)Cn1c(=O)c(C(=O)NC2CC2)c(O)n2ncc(C(=O)N3CCOCC3)c12` [Synthesis Example 227, N-Cyclopropyl-7-hydroxy-4-isobutyl-3-(morpholine-4-carbonyl)-5-oxo-4,5-dihydropyrazolo[1,5-a]pyrimidine-6-carboxamide], the IC50 came to 0.65 nM.

Consider `C/C(=C\c1cnn2c(O)c(C(=O)NC3CC3)c(=O)n(CC(C)C)c12)C(=O)N1CCOCC1` [Synthesis Example 254, (E)-N-Cyclopropyl-7-hydroxy-4-isobutyl-3-(2-methyl-3-morpholino-3-oxoprop-1-en-1-yl)-5-oxo-4,5-dihydropyrazolo[1,5-a]pyrimidine-6-carboxamide], for which the IC50 amounted to 0.84 nM.

Take `Cc1nn2c(O)c(C(=O)NC3CC3)c(=O)n(CC(C)C)c2c1/C=C/C(=O)N1CCCC12CCN(C(C)C)CC2` [Synthesis Example 678, (E)-N-Cyclopropyl-7-hydroxy-4-isobutyl-3-(3-(8-isopropyl-1,8-diazaspiro[4.5]decan-1-yl)-3-oxoprop-1-en-1-yl)-2-methyl-5-oxo-4,5-dihydropyrazolo[1,5-a]pyrimidine-6-carboxamide]: the IC50 worked out at 1.17 nM.

`CC(C)Cn1c(=O)c(C(=O)NC2CC2)c(O)n2ncc(/C=C/C(=O)N3CCC[C@H]3C(N)=O)c12` [compound 486, (S,E)-3-(3-(2-Carbamoylpyrrolidin-1-yl)-3-oxoprop-1-en-1-yl)-N-cyclopropyl-7-hydroxy-4-isobutyl-5-oxo-4,5-dihydropyrazolo[1,5-a]pyrimidine-6-carboxamide]: the IC50 worked out at 0.92 nM.

Take `CC(C)Cn1c(=O)c(C(=O)NC2CC2)c(O)n2ncc(CNC(=O)C3CCOCC3)c12` [Synthesis Example 262, N-Cyclopropyl-7-hydroxy-4-isobutyl-5-oxo-3-((tetrahydro-2H-pyran-4-carboxamido)methyl)-4,5-dihydropyrazolo[1,5-a]pyrimidine-6-carboxamide]: the IC50 was 1.01 nM.

As for `CC(C)Cn1c(=O)c(C(=O)NC2CC2)c(O)n2ncc(/C=C/C(=O)N3CCOCC3(C)C)c12` [compound 459, (E)-N-Cyclopropyl-3-(3-(3,3-dimethylmorpholino)-3-oxoprop-1-en-1-yl)-7-hydroxy-4-isobutyl-5-oxo-4,5-dihydropyrazolo[1,5-a]pyrimidine-6-carboxamide], the IC50 was found to be 0.74 nM.

On to `Cc1nn2c(O)c(C(=O)NC3CC3)c(=O)n(CC(C)C)c2c1/C=C/C(=O)N1CCCC12CCOCC2` [Synthesis Example 631, (E)-N-Cyclopropyl-7-hydroxy-4-isobutyl-2-methyl-5-oxo-3-(3-oxo-3-(8-oxa-1-azaspiro[4.5]decan-1-yl)prop-1-en-1-yl)-4,5-dihydropyrazolo[1,5-a]pyrimidine-6-carboxamide], for which the IC50 was 0.66 nM.

With `Cc1nn2c(O)c(C(=O)NC3CC3)c(=O)n(CC(C)C)c2c1/C=C/C(=O)N1CCC(C(F)(F)F)C1` (stereo not drawn) [Synthesis Example 614, (E)-N-Cyclopropyl-7-hydroxy-4-isobutyl-2-methyl-5-oxo-3-(3-oxo-3-(3-(trifluoromethyl)pyrrolidin-1-yl)prop-1-en-1-yl)-4,5-dihydropyrazolo[1,5-a]pyrimidine-6-carboxamide], the IC50 came to 1.49 nM.

In the case of `CC(C)(C)Cn1c(=O)c(C(=O)NC2CC2)c(O)n2nc(-c3[nH]ncc3C(=O)N3CCC(F)(F)C3)cc12` [Synthesis Example 316, N-Cyclopropyl-2-(4-(3,3-difluoropyrrolidine-1-carbonyl)-1H-pyrazol-5-yl)-7-hydroxy-4-neopentyl-5-oxo-4,5-dihydropyrazolo[1,5-a]pyrimidine-6-carboxamide hydrochloride], the IC50 was 0.9 nM.

Consider `COCCN(C)C(=O)/C=C/c1cnn2c(O)c(C(=O)NC3CC3)c(=O)n(CC(C)C)c12` [compound 519, (E)-N-Cyclopropyl-7-hydroxy-4-isobutyl-3-(3-((2-methoxyethyl)(methyl)amino)-3-oxoprop-1-en-1-yl)-5-oxo-4,5-dihydropyrazolo[1,5-a]pyrimidine-6-carboxamide], for which the IC50 worked out at 0.68 nM.

In the case of `CC1(Cn2c(=O)c(C(=O)NC3CC3)c(O)n3ncc(/C=C/C(=O)N4C[C@@H]5C[C@H]4CO5)c23)CC1` [Synthesis Example 374], the IC50 turned out to be 0.65 nM.

With `CC(C)Cn1c(=O)c(C(=O)NC2CC2)c(O)n2ncc(/C=C/C(=O)N3CCOC[C@@H]3CO)c12` [compound 525, (S,E)-N-Cyclopropyl-7-hydroxy-3-(3-(3-(hydroxymethyl)morpholino)-3-oxoprop-1-en-1-yl)-4-isobutyl-5-oxo-4,5-dihydropyrazolo[1,5-a]pyrimidine-6-carboxamide], the IC50 was determined as 0.65 nM.

With `C/C(=C\c1cnn2c(O)c(C(=O)NC3CC3)c(=O)n(CC(C)C)c12)C(=O)N1CCN(C2CC(F)(F)C2)CC1` [Synthesis Example 255, (E)-N-Cyclopropyl-3-(3-(4-(3,3-difluorocyclobutyl)piperazin-1-yl)-2-methyl-3-oxoprop-1-en-1-yl)-7-hydroxy-4-isobutyl-5-oxo-4,5-dihydropyrazolo[1,5-a]pyrimidine-6-carboxamide], the IC50 was found to be 1.02 nM.

In the case of `CC(C)Cn1c(=O)c(C(=O)NC2CC2)c(O)n2ncc(/C=C/C(=O)N3CCN(CC(F)(F)C(F)(F)F)CC3)c12` [compound 505, (E)-N-Cyclopropyl-7-hydroxy-4-isobutyl-5-oxo-3-(3-oxo-3-(4-(2,2,3,3,3-pentafluoropropyl)piperazin-1-yl)prop-1-en-1-yl)-4,5-dihydropyrazolo[1,5-a]pyrimidine-6-carboxamide], the IC50 was 1.89 nM.

As for `Cc1noc(C)c1/C=C/c1cnn2c(O)c(C(=O)NC3CC3)c(=O)n(CC(C)C)c12` [Synthesis Example 238, (E)-N-Cyclopropyl-3-(2-(3,5-dimethylisoxazol-4-yl)vinyl)-7-hydroxy-4-isobutyl-5-oxo-4,5-dihydropyrazolo[1,5-a]pyrimidine-6-carboxamide], the IC50 amounted to 0.89 nM.

`CC(C)Cn1c(=O)c(C(=O)NC2CC2)c(O)n2ncc(C(=O)N[C@H](C)c3ccccn3)c12` [Synthesis Example 219, (R)-N6-Cyclopropyl-7-hydroxy-4-isobutyl-5-oxo-N3-(1-(pyridin-2-yl)ethyl)-4,5-dihydropyrazolo[1,5-a]pyrimidine-3,6-dicarboxamide]: the IC50 came to 0.98 nM.

As for `CC(C)Cn1c(=O)c(C(=O)NC2CC2)c(O)n2ncc(/C=C/C(=O)N3CC[C@H](C(N)=O)C3)c12` [compound 512, (S,E)-3-(3-(3-Carbamoylpyrrolidin-1-yl)-3-oxoprop-1-en-1-yl)-N-cyclopropyl-7-hydroxy-4-isobutyl-5-oxo-4,5-dihydropyrazolo[1,5-a]pyrimidine-6-carboxamide], the IC50 was determined as 0.69 nM.

The assay is the same for the next values; noted with them: sepiapterin absorbance, Table 41, read-out: concentration at 50% inhibition of human SPR (IC50).
With `CC(C)Cn1c(=O)c(C(=O)NC2CC2)c(O)n2ncc(/C=C/C(=O)N3CCN(C)C[C@@H]3C)c12` [Synthesis Example 713, (S,E)-N-Cyclopropyl-3-(3-(2,4-dimethylpiperazin-1-yl)-3-oxoprop-1-en-1-yl)-7-hydroxy-4-isobutyl-5-oxo-4,5-dihydropyrazolo[1,5-a]pyrimidine-6-carboxamide], the IC50 is 0.96 nM.

For the molecule `CC(C)Cn1c(=O)c(C(=O)NC2CC2)c(O)n2ncc(/C=C/C(=O)N(C)Cc3cccnc3)c12` [Synthesis Example 712, (E)-N-Cyclopropyl-7-hydroxy-4-isobutyl-3-(3-(methyl(pyridin-3-ylmethyl)amino)-3-oxoprop-1-en-1-yl)-5-oxo-4,5-dihydropyrazolo[1,5-a]pyrimidine-6-carboxamide], the IC50 was 1.19 nM.

As to `Cc1nn2c(O)c(C(=O)NC3CC3)c(=O)n(CC(C)C)c2c1/C=C/C(=O)N1CC[C@H](C#N)C1` [Synthesis Example 688, (S,E)-3-(3-(3-Cyanopyrrolidin-1-yl)-3-oxoprop-1-en-1-yl)-N-cyclopropyl-7-hydroxy-4-isobutyl-2-methyl-5-oxo-4,5-dihydropyrazolo[1,5-a]pyrimidine-6-carboxamide], the IC50 is 0.91 nM.

Consider `CC(C)Cn1c(=O)c(C(=O)NC2CC2)c(O)n2ncc(/C=C/C(=O)N3C[C@@H](C)OC[C@@H]3C)c12` [Synthesis Example 741, N-Cyclopropyl-3-((E)-3-((2R,5S)-2,5-dimethylmorpholino)-3-oxoprop-1-en-1-yl)-7-hydroxy-4-isobutyl-5-oxo-4,5-dihydropyrazolo[1,5-a]pyrimidine-6-carboxamide], for which the IC50 was found to be 0.98 nM.

Take `Cc1nn2c(O)c(C(=O)NC3CC3)c(=O)n(CC(C)C)c2c1/C=C/C(=O)N(C)CC(C)(C)O` [Synthesis Example 686, (E)-N-Cyclopropyl-7-hydroxy-3-(3-((2-hydroxy-2-methylpropyl)(methyl)amino)-3-oxoprop-1-en-1-yl)-4-isobutyl-2-methyl-5-oxo-4,5-dihydropyrazolo[1,5-a]pyrimidine-6-carboxamide]: the IC50 amounted to 1 nM.

In the case of `Cc1nn2c(O)c(C(=O)NC3CC3)c(=O)n(CC(C)C)c2c1/C=C/C(=O)N1CCC[C@@H]1C#N` [Synthesis Example 749, (R,E)-3-(3-(2-Cyanopyrrolidin-1-yl)-3-oxoprop-1-en-1-yl)-N-cyclopropyl-7-hydroxy-4-isobutyl-2-methyl-5-oxo-4,5-dihydropyrazolo[1,5-a]pyrimidine-6-carboxamide], the IC50 was determined as 0.93 nM.
